Source: ChEMBL document CHEMBL4196171, “Design of Gut-Restricted Thiazolidine Agonists of G Protein-Coupled Bile Acid Receptor 1 (GPBAR1, TGR5)” (J Med Chem, 2018)
In brackets after ≈: the same amount, converted by molar mass.

What was measured:
[1] = Drug concentration in bile/gall bladder of C57BL/6 mouse at 30 mg/kg, po measured after 8 hrs by HPLC and mass spectrometry; format: ADME, organism-based; conditions: read-out: Drug uptake
[2] = Apparent permeability from apical to basolateral side in MDCK cells at 10 uM by HPLC-MS/MS method; format: ADME, cell-based, Canis lupus familiaris; conditions: dog
[3] = Drug recovery in C57BL/6 mouse feces at 10 mg/kg, po after 48 hrs by LC-MS/MS method; format: ADME, organism-based; conditions: faeces, read-out: Drug recovery
[4] = Plasma concentration in C57BL/6 DIO mouse at 100 mg/kg, po measured after 4 to 16 hrs post dose by HPLC and mass spectrometry; format: ADME, organism-based; conditions: in vivo
[5] = Plasma concentration in C57BL/6 DIO mouse at 30 mg/kg, po measured after 4 to 16 hrs post dose by HPLC and mass spectrometry; format: ADME, organism-based; conditions: in vivo
[6] = Drug recovery in C57BL/6 mouse bile/gall bladder at 30 mg/kg, po by LC-MS/MS method; format: ADME, organism-based; conditions: read-out: Drug recovery
[7] = Cmax in C57BL/6 mouse plasma at 10 mg/kg, po by HPLC and mass spectrometry; format: ADME, organism-based; parameters: dose 10 mg/kg, route oral
[8] = Apparent permeability from basolateral to apical side in MDCK cells at 10 uM by HPLC-MS/MS method; format: ADME, cell-based, Canis lupus familiaris; conditions: dog
[9] = AUC in C57BL/6 mouse plasma at 10 mg/kg, po by HPLC and mass spectrometry; format: ADME, organism-based
[10] = Plasma concentration in C57BL/6 mouse at 30 mg/kg, po measured after 8 hrs by HPLC and mass spectrometry; format: ADME, organism-based
[11] = Solubility in FeSSIF solution at 1 mg/ml at […] by HPLC with UV detector based assay; format: physicochemical

For `O=C(NC[C@H](O)[C@@H](O)[C@H](O)[C@H](O)CO)c1ccc(COc2cc(Cl)c(CN3CSC[C@H]3C(=O)N3CCN(C4CC4)c4ccccc43)cc2Cl)cc1`, which concentration at 8 h [1] is on record?
The concentration at 8 h was 0.09 µM.

And the Papp A→B at 10 µM [2]?
The Papp A→B at 10 µM was < 0.1 nm/s.

And the dose excreted at 48 h [3]?
The dose excreted at 48 h was 83%.

And the Drug uptake [4]?
Its Drug uptake is “Not Active”.

What about the Drug uptake [5] of the same compound?
The Drug uptake was “Not Active”.

And the dose excreted [6]?
The dose excreted was < 0.01%.

What about the Cmax [7] of the same compound?
Its Cmax is 2 ng/mL.

What about the Papp B→A at 10 µM [8] of the same compound?
The Papp B→A at 10 µM was 0.7 nm/s.

What about the AUC [9] of the same compound?
The AUC was < 5 ng·h/mL.

And the concentration at 8 h [10]?
Its concentration at 8 h is < 2 ng/mL.

And the solubility [11]?
The solubility was 0.82 mg/mL (≈ 1080 µM).

With `O=C([C@@H]1CCCN1Cc1cc(Cl)ccc1Cl)N1CCN(C2CC2)c2ccccc21` as the compound, how does the solubility [11] read?
The solubility was 0.36 mg/mL (≈ 836 µM).

Which solubility [11] does the source give for `O=C(c1cccnc1Oc1cc(Cl)ccc1Cl)N1CCN(C2CC2)c2ccccc21` here?
Its solubility is < 0.05 mg/mL.

Which concentration at 8 h [1] does the source give for `CN(C[C@H](O)[C@@H](O)[C@H](O)[C@H](O)CO)C(=O)CCCCc1cc(Cl)c(CN2CSC[C@H]2C(=O)N2CCN(C3CC3)c3ccccc32)cc1Cl` here?
The concentration at 8 h was 1.3 µM.

What about the concentration at 8 h [10] of the same compound?
The concentration at 8 h was 3.6 ng/mL.

Which concentration at 8 h [1] does the source give for `O=C(CCCCc1cc(Cl)c(CN2CSC[C@H]2C(=O)N2CCN(C3CC3)c3ccccc32)cc1Cl)N[C@@H](C(=O)O)[C@@H](O)[C@H](O)[C@H](O)CO` here?
The concentration at 8 h was 3.9 µM.

What about the concentration at 8 h [10] of the same compound?
Its concentration at 8 h is 28.1 ng/mL.

With `O=C(NCCCCCc1cc(Cl)c(CN2CSC[C@H]2C(=O)N2CCN(C3CC3)c3ccccc32)cc1Cl)NCP(=O)(O)O` as the compound, how does the concentration at 8 h [1] read?
Its concentration at 8 h is 3.1 µM.

And the concentration at 8 h [10]?
The concentration at 8 h was 24.8 ng/mL.

With `CN(C[C@H](O)[C@@H](O)[C@H](O)[C@H](O)CO)C(=O)CC[C@H](NC(=O)CCCCc1cc(Cl)c(CN2CSC[C@H]2C(=O)N2CCN(C3CC3)c3ccccc32)cc1Cl)C(=O)O` as the compound, how does the concentration at 8 h [1] read?
Its concentration at 8 h is 1.9 µM.

What about the concentration at 8 h [10] of the same compound?
The concentration at 8 h was 2.3 ng/mL.

For `O=C(O)CN(CCCCCc1cc(Cl)c(CN2CSC[C@H]2C(=O)N2CCN(C3CC3)c3ccccc32)cc1Cl)CC(=O)O`, which concentration at 8 h [1] is on record?
The concentration at 8 h was 4.7 µM.

Which results are given for `O=C(O)CNC(=O)CNC(=O)CNC(=O)CCCCc1cc(Cl)c(CN2CSC[C@H]2C(=O)N2CCN(C3CC3)c3ccccc32)cc1Cl`?
concentration at 8 h [1]: 0.6 µM; concentration at 8 h [10]: < 0.5 ng/mL

With `O=C(NCCCN(CCCNC(=O)[C@H](O)[C@@H](O)[C@H](O)[C@H](O)CO)C(=O)NCCCCOc1cc(Cl)c(CN2CSC[C@H]2C(=O)N2CCN(C3CC3)c3ccccc32)cc1Cl)[C@H](O)[C@@H](O)[C@H](O)[C@H](O)CO` as the compound, how does the concentration at 8 h [1] read?
The concentration at 8 h was 0.3 µM.

Which results are given for `O=C(O)CNC(=O)[C@H](CSSC[C@H](NC(=O)CC[C@H](NC(=O)CCCCc1cc(Cl)c(CN2CSC[C@H]2C(=O)N2CCN(C3CC3)c3ccccc32)cc1Cl)C(=O)O)C(=O)NCC(=O)O)NC(=O)CC[C@H](NC(=O)CCCCc1cc(Cl)c(CN2CSC[C@H]2C(=O)N2CCN(C3CC3)c3ccccc32)cc1Cl)C(=O)O`?
concentration at 8 h [1]: < 0.1 µM; concentration at 8 h [10]: < 10 ng/mL

Which concentration at 8 h [1] does the source give for `O=C(O)CN(C[C@H](O)[C@@H](O)[C@H](O)[C@H](O)CO)C(=O)CCCCc1cc(Cl)c(CN2CSC[C@H]2C(=O)N2CCN(C3CC3)c3ccccc32)cc1Cl` here?
The concentration at 8 h was 3.7 µM.

For `O=C(NCCCCCc1cc(Cl)c(CN2CSC[C@H]2C(=O)N2CCN(C3CC3)c3ccccc32)cc1Cl)NC(CO)(CO)CO`, which concentration at 8 h [1] is on record?
Its concentration at 8 h is 6 µM.

And the concentration at 8 h [10]?
The concentration at 8 h was 1.2 ng/mL.

For `C[C@@H](NC(=O)[C@@H](C)NC(=O)[C@@H](C)NC(=O)CCCCc1cc(Cl)c(CN2CSC[C@H]2C(=O)N2CCN(C3CC3)c3ccccc32)cc1Cl)C(=O)O`, which concentration at 8 h [1] is on record?
Its concentration at 8 h is 1.7 µM.

What about the concentration at 8 h [10] of the same compound?
Its concentration at 8 h is 0.6 ng/mL.

Which results are given for `O=C(NCCCCCc1cc(Cl)c(CN2CSC[C@H]2C(=O)N2CCN(C3CC3)c3ccccc32)cc1Cl)N1CCN(CP(=O)(O)O)CC1`?
concentration at 8 h [1]: 0.08 µM; concentration at 8 h [10]: 2.8 ng/mL
